Data: patent US10294234B2, “HIV inhibitor compounds” (priority 2017, dated 2019)
Read-outs that look alike come from different tables or passages of the source.

Assays:
[1] = Procedure: Liver Microsomal Stability Protocol
Test compounds and one control compound (verapamil) were tested in 3 different species in duplicate sets.
Test compound concentration: 1 uM; Protein concentration: 0.5 mg/mL (for dog, rat, and human liver microsomes); Cofactor: NADPH-Regenerating system (NRS) solution; Time-points: 2, 12, 25, 45, and 65 minutes.
Reaction composition (in each incubation well) contains:
After plates were vortexed, they were centrifuged for 30 minutes to remove proteins. About 100 μL supernatant was removed to a new plate and diluted with 150 μL water. About 20 μL of the mixture was injected into LC/MS/MS system to monitor the compound's response. In vitro measured t1/2 was used to calculate Clint values.

[2] = tested on: HIV-1 (IIIB) in MT-4 cells; assay: MT-4 HIV assay; type: cell-based; settings: Human immunodeficiency virus 1, MT4, 120 h
Outline: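 MT-4 cells infected with HIV-1 IIIB (1:250 stock dilution) were incubated with 1:3 serially diluted compounds in RPMI with 10% FBS for 5 days at 37 °C. Cell Titer Glo luminescence was the readout. Plates included mock-infected wells, no-drug wells and 5 uM AZT controls.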

[3] = HIV-1 (IIIB), MT-4 cells, 5 days, Cell Titer Glo, read-out: EC50
[4] = human liver microsomes 0.5 mg/mL, 1 uM compound, NADPH
[5] = rat liver microsomes 0.5 mg/mL, 1 uM compound, NADPH

Row | Human Pred Cl. [1, 4] | Rat. Pred. Cl. [1, 5] | SMILES | Human Pred Cl. ([1]; human, microsomes) | Rat. Pred. Cl. ([1]; rat, microsomes) | EC50 [2, 3] | EC50 [2]
1 | – | – | COC(=O)N[C@H](C(=O)N[C@@H](Cc1ccc(C#Cc2ccc(N3CC4CCC(C3)N4C3COC3)nc2)cc1)[C@@H](O)CN(Cc1c(F)cc(-c2nnc(C)o2)cc1F)NC(=O)[C@@H](NC(=O)OC)C(C)(C)C(F)(F)F)C(C)(C)C(F)(F)F [Example 11, Methyl ((5S,8S,9S,14S)-11-(2,6-difluoro-4-(5-methyl-1,3,4-oxadiazol-2-yl)benzyl)-16,16,16-trifluoro-9-hydroxy-15,15-dimethyl-8-(4-((6-(8-(oxetan-3-yl)-3,8-diazabicyclo[3.2.1]octan-3-yl)pyridin-3-yl)ethynyl)benzyl)-3,6,13-trioxo-5-(1,1,1-trifluoro-2-methylpropan-2-yl)-2-oxa-4,7,11,12-tetraazahexadecan-14-yl)carbamate] | 0.18 L/H/kg | 0.18 L/H/kg | 3.72 nM | –
2 | <0.11 L/H/kg | 0.61 L/H/kg | COC(=O)N[C@H](C(=O)N[C@@H](Cc1ccc(C#Cc2ccc(N3CC4CCC(C3)O4)nc2)cc1)[C@@H](O)CN(Cc1c(F)cc(-c2cnn(C(F)F)c2)cc1F)NC(=O)[C@@H](NC(=O)OC)C(C)(C)C(F)(F)F)C(C)(C)C(F)(F)F [Example 68, Methyl ((5S,8S,9S,14S)-8-(4-((6-(8-oxa-3-azabicyclo[3.2.1]octan-3-yl)pyridin-3-yl)ethynyl)benzyl)-11-(4-(1-(difluoromethyl)-1H-pyrazol-4-yl)-2,6-difluorobenzyl)-16,16,16-trifluoro-9-hydroxy-15,15-dimethyl-3,6,13-trioxo-5-(1,1,1-trifluoro-2-methylpropan-2-yl)-2-oxa-4,7,11,12-tetraazahexadecan-14-yl)carbamate] | – | – | 7.25 nM | –
3 | <0.11 L/H/kg | – | COC(=O)N[C@H](C(=O)N[C@@H](Cc1ccc(C#Cc2ccc(N3CC4(C3)CN(C3COC3)C4)nc2)cc1)[C@@H](O)CN(Cc1c(F)cc(-c2ccn(C(F)F)n2)cc1F)NC(=O)[C@@H](NC(=O)OC)C(C)(C)C(F)(F)F)C(C)(C)C(F)(F)F [Example 163, Methyl ((5S,8S,9S,14S)-11-(4-(1-(difluoromethyl)-1H-pyrazol-3-yl)-2,6-difluorobenzyl)-16,16,16-trifluoro-9-hydroxy-15,15-dimethyl-8-(4-((6-(6-(oxetan-3-yl)-2,6-diazaspiro[3.3]heptan-2-yl)pyridin-3-yl)ethynyl)benzyl)-3,6,13-trioxo-5-(1,1,1-trifluoro-2-methylpropan-2-yl)-2-oxa-4,7,11,12-tetraazahexadecan-14-yl)carbamate] | – | – | – | 2.32 nM
4 | 0.16 L/H/kg | 1.41 L/H/kg | COC(=O)N[C@H](C(=O)N[C@@H](Cc1ccc(C#Cc2cnc(N3C[C@H]4C[C@@H]3CN4C3COC3)nc2)cc1)[C@@H](O)CN(Cc1c(F)cc(-c2ccn(CC(F)F)n2)cc1F)NC(=O)[C@@H](NC(=O)OC)C(C)(C)C(F)(F)F)C(C)(C)C(F)(F)F [Example 25, Methyl ((5S,8S,9S,14S)-11-(4-(1-(2,2-difluoroethyl)-1H-pyrazol-3-yl)-2,6-difluorobenzyl)-16,16,16-trifluoro-9-hydroxy-15,15-dimethyl-8-(4-((2-((1R,4R)-5-(oxetan-3-yl)-2,5-diazabicyclo[2.2.1]heptan-2-yl)pyrimidin-5-yl)ethynyl)benzyl)-3,6,13-trioxo-5-(1,1,1-trifluoro-2-methylpropan-2-yl)-2-oxa-4,7,11,12-tetraazahexadecan-14-yl)carbamate] | – | – | 3.19 nM | –
5 | <0.11 L/H/kg | 0.28 L/H/kg | COC(=O)N[C@H](C(=O)N[C@@H](Cc1ccc(C#Cc2ccc(N3CCN(C4CCOC4)CC3)nc2)cc1)[C@@H](O)CN(Cc1c(F)cc(-c2cnn(C(F)F)c2)cc1F)NC(=O)[C@@H](NC(=O)OC)C(C)(C)C(F)(F)F)C(C)(C)C(F)(F)F (stereo partly drawn) [Example 114, Methyl ((5S,8S,9S,14S)-11-(4-(1-(difluoromethyl)-1H-pyrazol-4-yl)-2,6-difluorobenzyl)-16,16,16-trifluoro-9-hydroxy-15,15-dimethyl-3,6,13-trioxo-8-(4-((6-(4-(tetrahydrofuran-3-yl)piperazin-1-yl)pyridin-3-yl)ethynyl)benzyl)-5-(1,1,1-trifluoro-2-methylpropan-2-yl)-2-oxa-4,7,11,12-tetraazahexadecan-14-yl)carbamate] | – | – | 5.1 nM | –
6 | – | – | COC(=O)N[C@H](C(=O)N[C@@H](Cc1ccc(C#Cc2ccc(N3CC4CCC(C3)[N+]4(C)C3COC3)nc2)cc1)[C@@H](O)CN(Cc1c(F)cc(-c2ccn(C(F)F)n2)cc1F)NC(=O)[C@@H](NC(=O)OC)C(C)(C)C(F)(F)F)C(C)(C)C(F)(F)F (stereo partly drawn) [Example 48, 3-(5-((4-((2S,3S)-4-(1-(4-(1-(difluoromethyl)-1H-pyrazol-3-yl)-2,6-difluorobenzyl)-2-((S)-4,4,4-trifluoro-2-((methoxycarbonyl)amino)-3,3-dimethylbutanoyl)hydrazinyl)-3-hydroxy-2-((S)-4,4,4-trifluoro-2-((methoxycarbonyl)amino)-3,3-dimethylbutanamido)butyl)phenyl)ethynyl)pyridin-2-yl)-8-methyl-8-(oxetan-3-yl)-3,8-diazabicyclo[3.2.1]octan-8-ium] | <0.11 L/H/kg | 0.18 L/H/kg | 114 nM | –
7 | 0.17 L/H/kg | 0.95 L/H/kg | COC(=O)N[C@H](C(=O)N[C@@H](Cc1ccc(C#Cc2ccc(N3C[C@H]4C[C@@H]3CN4C3COC3)nc2)cc1)[C@@H](O)CN(Cc1c(F)cc(-c2cc(F)ccn2)cc1F)NC(=O)[C@@H](NC(=O)OC)C(C)(C)C(F)(F)F)C(C)(C)C(F)(F)F [Example 138, Methyl ((5S,8S,9S,14S)-11-(2,6-difluoro-4-(4-fluoropyridin-2-yl)benzyl)-16,16,16-trifluoro-9-hydroxy-15,15-dimethyl-8-(4-((6-((1R,4R)-5-(oxetan-3-yl)-2,5-diazabicyclo[2.2.1]heptan-2-yl)pyridin-3-yl)ethynyl)benzyl)-3,6,13-trioxo-5-(1,1,1-trifluoro-2-methylpropan-2-yl)-2-oxa-4,7,11,12-tetraazahexadecan-14-yl)carbamate] | – | – | 2.32 nM | –
8 | – | – | COC(=O)N[C@H](C(=O)N[C@@H](Cc1ccc(C#Cc2ccc(N3CC4CCC(C3)N4C3COC3)nc2)cc1)[C@@H](O)CN(Cc1c(F)cc(-c2nnc(C3CC3)o2)cc1F)NC(=O)[C@@H](NC(=O)OC)C(C)(C)C(F)(F)F)C(C)(C)C(F)(F)F [Example 129, Methyl ((5S,8S,9S,14S)-11-(4-(5-cyclopropyl-1,3,4-oxadiazol-2-yl)-2,6-difluorobenzyl)-16,16,16-trifluoro-9-hydroxy-15,15-dimethyl-8-(4-((6-(8-(oxetan-3-yl)-3,8-diazabicyclo[3.2.1]octan-3-yl)pyridin-3-yl)ethynyl)benzyl)-3,6,13-trioxo-5-(1,1,1-trifluoro-2-methylpropan-2-yl)-2-oxa-4,7,11,12-tetraazahexadecan-14-yl)carbamate] | <0.11 L/H/kg | – | 3.62 nM | –
9 | <0.11 L/H/kg | <0.18 L/H/kg | COC(=O)N[C@H](C(=O)N[C@@H](Cc1ccc(C#Cc2ccc(-c3cn4c(n3)CN(C)C(=O)C4)cc2)cc1)[C@@H](O)CN(Cc1c(F)cc(-c2cnn(C(F)F)c2)cc1F)NC(=O)[C@@H](NC(=O)OC)C(C)(C)C(F)(F)F)C(C)(C)C(F)(F)F [Example 69, Methyl ((5S,8S,9S,14S)-11-(4-(1-(difluoromethyl)-1H-pyrazol-4-yl)-2,6-difluorobenzyl)-16,16,16-trifluoro-9-hydroxy-15,15-dimethyl-8-(4-((4-(7-methyl-6-oxo-5,6,7,8-tetrahydroimidazo[1,2-a]pyrazin-2-yl)phenyl)ethynyl)benzyl)-3,6,13-trioxo-5-(1,1,1-trifluoro-2-methylpropan-2-yl)-2-oxa-4,7,11,12-tetraazahexadecan-14-yl)carbamate] | – | – | 3.24 nM | –
10 | 0.41 L/H/kg | 1.43 L/H/kg | COC(=O)N[C@H](C(=O)N[C@@H](Cc1ccc(C#Cc2ccc(N3CC4CC(CN(C(C)=O)C4)C3)nc2)cc1)[C@@H](O)CN(Cc1c(F)cc(-c2cnn(C(F)F)c2)cc1F)NC(=O)[C@@H](NC(=O)OC)C(C)(C)C(F)(F)F)C(C)(C)C(F)(F)F [Example 67, Methyl ((5S,8S,9S,14S)-8-(4-((6-(7-acetyl-3,7-diazabicyclo[3.3.1]nonan-3-yl)pyridin-3-yl)ethynyl)benzyl)-1-(4-(1-(difluoromethyl)-1H-pyrazol-4-yl)-2,6-difluorobenzyl)-16,16,16-trifluoro-9-hydroxy-15,15-dimethyl-3,6,13-trioxo-5-(1,1,1-trifluoro-2-methylpropan-2-yl)-2-oxa-4,7,11,12-tetraazahexadecan-14-yl)carbamate] | – | – | 6.25 nM | –
11 | – | – | COC(=O)N[C@H](C(=O)N[C@@H](Cc1ccc(C#Cc2ccc(N3CC4CCC(C3)N4C3COC3)nc2)cc1)[C@@H](O)CN(Cc1c(F)cc(C2CCOCC2)cc1F)NC(=O)[C@@H](NC(=O)OC)C(C)(C)C(F)(F)F)C(C)(C)C(F)(F)F [Example 82, Methyl ((5S,8S,9S,14S)-11-(2,6-difluoro-4-(tetrahydro-2H-pyran-4-yl)benzyl)-16,16,16-trifluoro-9-hydroxy-15,15-dimethyl-8-(4-((6-(8-(oxetan-3-yl)-3,8-diazabicyclo[3.2.1]octan-3-yl)pyridin-3-yl)ethynyl)benzyl)-3,6,13-trioxo-5-(1,1,1-trifluoro-2-methylpropan-2-yl)-2-oxa-4,7,11,12-tetraazahexadecan-14-yl)carbamate] | 0.82 L/H/kg | 0.44 L/H/kg | 4.4 nM | –
